Structures can show the parent of a compound that is named as a salt. Peptide text beside a SMILES is read from it. * marks the point of attachment. Cbz = O=C(OCc1ccccc1)*
Test system: SARS-CoV-2
Experiment: microbe, parasite or virus in culture
Assay type: cell-based
Details: Severe acute respiratory syndrome coronavirus 2, 120 h; for Emax: read-out: Maximum confluence reached (%)

## Cc1cccc(Nc2nc(-c3ccncc3)cs2)c1 [Compound 85, N-(3-Methylphenyl)-4-(4-pyridyl)thiazol-2-amine]
  Emax: 47.8%

## O=C(c1c2ccccc2cc2ccccc12)N1CCC(N2CCC[C@@H](C(=O)N3CCOCC3)C2)CC1 [Compound 81, 1-[1'-(Anthracen-9-ylcarbonyl)-1,4'-bipiperidin-3(R)-yl]-1-(4-morpholinyl)methanone]
  Emax: 51%

## CCN(CC)CCCCNc1ncc2cc(-c3c(Cl)cccc3Cl)c(NC(=O)NC(C)(C)C)nc2n1 [Compound 107, 1-tert-Butyl-3-[6-(2,6-dichlorophenyl)-2-[4-(diethylamino)butylamino]pyrido[2,3-d]pyrimidin-7-yl]urea]
  IC50: 145 µM
  Emax: 34.1%

## CN1[C@@H]2CC[C@H]1C[C@@H](OC(=O)c1cc(Cl)cc(Cl)c1)C2 [Compound 36, 3,5-Dichlorobenzoic acid endo-8-methyl-8-azabicyclo[3.2.1]oct-3-yl ester]
  IC50: 43.9 µM
  Emax: 69%

## O=C(O)Cc1cccc(OCCCN(Cc2cccc(C(F)(F)F)c2Cl)CC(c2ccccc2)c2ccccc2)c1 [Compound 71, 2-[3-[3-[N-[2-Chloro-3-(trifluoromethyl)benzyl]-N-(2,2-diphenylethyl)amino]propoxy]phenyl]acetic acid]
  Emax: 38%

## CCC(C/C=C/c1ccccc1)(c1ccccc1)N(C)CC1CC1 (single isomer, unassigned; (+)) [Compound 89, (+)-N-(Cyclopropylmethyl)-N-[1-ethyl-1,4-diphenyl-3(E)-butenyl]-N-methylamine]
  IC50: 11.2 µM
  Emax: 58.3%

## COc1ccc2c(c1)[C@]1(C[C@H]1c1ccc3c(/C=C/c4ccc(CN5C[C@@H](C)O[C@@H](C)C5)cc4)n[nH]c3c1)C(=O)N2 [Compound 33, (1R,2S)-2-[3-[(E)-2-[4-[(cis-2,6-Dimethylmorpholin-4-yl)methyl]phenyl]vinyl]-1H-indazol-6-yl]-5'-methoxyspiro[cyclopropane-1,3'-indol]-2'(1'H)-one (2E)-but-2-enedioate]
  Emax: 105%

## O=C(CCCN1CCC2(CC1)C(=O)N(Cc1cccc(F)c1)CN2c1ccccc1)c1ccc(F)cc1 [Compound 46, 3-[(3-fluorophenyl)methyl]-8-[4-(4-fluorophenyl)-4-oxobutyl]-1-phenyl-1,3,8-triazaspiro[4.5]decan-4-one]
  Emax: 43%

## CCCCN(CCCC)CCC(O)c1cc2c(Cl)cc(Cl)cc2c2cc(C(F)(F)F)ccc12 (racemic) [Compound 40, (±)-1,3-Dichloro-9-[3-(dibutylamino)-1-hydroxypropyl]-6-(trifluoromethyl)phenanthrene hydrochloride]
  Emax: 51.8%

## Nc1ncc(-c2ccnc(Nc3ccncc3)n2)c(CC2CC2)n1 [Compound 20, 4'-(Cyclopropylmethyl)-N2-(pyridin-4-yl)-4,5'-bipyrimidine-2,2'-diamine]
  Emax: 98.2%

## Nc1nc(=S)c2ncn([C@@H]3O[C@H](CO)[C@@H](O)[C@H]3O)c2[nH]1 [Compound 55, 2-amino-9-[(2R,3R,4S,5R)-3,4-dihydroxy-5-(hydroxymethyl)oxolan-2-yl]-3H-purine-6-thione]
  Emax: 51.5%

## O=c1cc(N2CCOCC2)oc2c(-c3cccc4c3sc3ccccc34)cccc12 [Compound 69, 8-(Dibenzo[b,d]thien-4-yl)-2-(4-morpholinyl)-4H-1-benzopyran-4-one]
  Emax: 90.5%

## CC(C)(O)CNc1ncc(-c2ccnc(Nc3ccnc(Cl)c3)n2)c(CC2CC2)n1 [Compound 60, 1-[[2-[(2-chloro-4-pyridinyl)amino]-4'-(cyclopropylmethyl)[4,5'-bipyrimidin]-2'-yl]amino]-2-methyl-2-propanol]
  Emax: 45.6%

## CC(C)C[C@H](NC(=O)CNC(=O)c1cc(Cl)ccc1Cl)B(O)O [Compound 108, 1(R)-[2-(2,5-Dichlorobenzamido)acetamido]-3-methylbutylboronic acid]
  IC50: 135 µM
  Emax: 30.8%

## NC(=NC1C2CC3CC(C2)CC1C3)Nc1ccc(I)cc1 (stereo not shown) [Compound 49, 2-(2-adamantyl)-1-(4-iodophenyl)guanidine]
  Emax: 81.8%

## CC(C)COCC(CN(Cc1ccccc1)c1ccccc1)N1CCCC1 (stereo not shown) [Compound 78, 1-[1-(N-Benzylanilino)-3-isobutoxy-2-propyl]pyrrolidine monohydrochloride monohydrate]
  Emax: 30.4%

## CCN(CC)CCOc1ccc2c(c1)C(=O)c1cc(OCCN(CC)CC)ccc1-2 [Compound 84, 2,7-Bis[2-(diethylamino)ethoxy]-9H-fluoren-9-one]
  Emax: 68.9%

## O=[N+]([O-])c1ccc(N/N=C/c2sc(N3CCOCC3)nc2-c2ccccc2)c(S(=O)(=O)Nc2ccccc2Cl)c1 [Compound 73, N-(2-chlorophenyl)-2-[(2E)-2-[(2-morpholin-4-yl-4-phenyl-1,3-thiazol-5-yl)methylidene]hydrazinyl]-5-nitrobenzenesulfonamide]
  Emax: 53.9%

## Nc1ccc(C(=O)Nc2cccc(-c3nc(N4CCOCC4)c4oc5ncccc5c4n3)c2)cn1 [Compound 104, 6-Amino-N-[3-[4-(4-morpholinyl)pyrido[3',2':4,5]furo[3,2-d]pyrimidin-2-yl]phenyl]pyridine-3-carboxamide]
  Emax: 35.5%

## CC(C)C(=O)OCC(=O)[C@@]12O[C@H](C3CCCCC3)O[C@@H]1C[C@H]1[C@@H]3CCC4=CC(=O)C=C[C@]4(C)[C@H]3[C@@H](O)C[C@@]12C [Compound 96, 16alpha,17alpha-[(R)-Cyclohexylmethylenedioxy]-11beta-hydroxy-21-(isobutyryloxy)pregna-1,4-dien-3-one]
  IC50: 47 µM
  Emax: 35.2%

## Cc1nc(N)nc(N)c1-c1ccc(Cl)c(Cl)c1 [Compound 41, 5-(3,4-Dichlorophenyl)-6-methylpyrimidine-2,4-diamine]
  Emax: 58%

## O=C(NCCN1CCC2(CC1)C(=O)NCN2c1cccc(F)c1)c1ccc2ccccc2c1 [Compound 56, N-[2-[1-(3-Fluorophenyl)-4-oxo-1,3,8-triazaspiro[4.5]dec-8-yl]ethyl]naphthalen-2-carboxamide]
  Emax: 98.5%

## CC[C@@H](C(=O)[C@@H](C)[C@@H](O)[C@H](C)[C@@H]1O[C@@H]([C@@H](CC)C(=O)O)CC[C@@H]1C)[C@H]1O[C@]2(C=C[C@@H](O)[C@]3(CC[C@@](C)([C@H]4CC[C@](O)(CC)[C@H](C)O4)O3)O2)[C@H](C)C[C@@H]1C [Compound 93, 2(R)-[6(R)-[5(R)-[(2S,5S,7R,9S,10S,12R,15R)-2-[5(R)-Ethyl-5-hydroxy-6(S)-methyltetrahydropyran-2(R)-yl]-15-hydroxy-2,10,12-trimethyl-1,6,8-trioxadispiro[4.1.5.3]pentadec-13-en-9-yl]-2(S)-hydroxy-1(S),3(S)-dimethyl-4-oxoheptyl]-5(S)-methyltetrahydropyran-2(R)-yl]butyric acid]
  Emax: 34.4%

## COc1cc2c(NC3CCN(C(C)C)CC3)nc(N3CCC(F)(F)CC3)nc2cc1OCCCN1CCCC1 [Compound 95, 2-(4,4-Difluoropiperidin-1-yl)-6-methoxy-N-[1-(propan-2-yl)piperidin-4-yl]-7-[3-(pyrrolidin-1-yl)propoxy]quinazolin-4-amine]
  Emax: 31.1%

## O=C(Nc1ccc(Cl)cc1)Nc1ccc(Cl)c(Cl)c1 [Compound 100, 3-(4-Chlorofenil)-1-(3,4-diclorofenil)urea]
  Emax: 47.2%

## CCC(=C(c1ccc(O)cc1)c1ccc(OCCNC)cc1)c1ccccc1 [Compound 91, 4-[1-[4-[2-(Methylamino)ethoxy]phenyl]-2-phenyl-1-butenyl]phenol hydrochloride]
  IC50: 6.34 µM
  Emax: 35.7%

## CN(C)C(=O)C(CCN1CCC(O)(c2ccc(Cl)cc2)CC1)(c1ccccc1)c1ccccc1 [Compound 110, 4-[4-(4-Chlorophenyl)-4-hydroxypiperidin-1-yl]-N,N-dimethyl-2,2-diphenylbutyramide hydrochloride]
  Emax: 34.4%

## COc1cc2c(N3CCN(C(=O)Nc4ccc(OC(C)C)cc4)CC3)ncnc2cc1OCCCN1CCCCC1 [Compound 35, N-(4-Isopropoxyphenyl)-4-[6-methoxy-7-[3-(1-piperidinyl)propoxy]quinazolin-4-yl]piperazine-1-carboxamide]
  Emax: 80.1%

## CC1=NN(c2ccc(C)c(C)c2)C(=O)/C1=N\Nc1cccc(-c2cccc(C(=O)O)c2)c1O [Compound 37, 3'-[2(Z)-[1-(3,4-Dimethylphenyl)-3-methyl-5-oxo-4,5-dihydro-1H-pyrazol-4-ylidene]hydrazino]-2'-hydroxybiphenyl-3-carboxylic acid]
  IC50: 58.1 µM
  Emax: 63.2%

## CC(C)C[C@@H](C=O)NC(=O)[C@H](CC(C)C)NC(=O)[C@H](CC(C)C)NC(=O)OCc1ccccc1 [Compound 52, Benzyloxycarbonyl-L-leucyl-L-leucyl-L-leucinal] (Cbz-Leu-Leu-Leu-aldehyde)
  Emax: 82.8%

## CN1CCN(CC/C=C2/c3ccccc3Sc3ccc(S(=O)(=O)N(C)C)cc32)CC1 [Compound 109, (Z)-N,N-Dimethyl-9-[3-(4-methyl-1-piperazinyl)propylidene]thioxanthene-2-sulfonamide]
  Emax: 36.5%

## CCN(CC)CCO[C@H]1CC[C@@]2(C)C(=CC[C@@H]3[C@@H]2CC[C@]2(C)C(=O)CC[C@@H]32)C1 [Compound 80, 3beta-[2-(Diethylamino)ethoxy]androst-5-en-17-one hydrochloride]
  Emax: 44.7%

## CCN(CC)CCOc1ccc(C(=C(Cl)c2ccccc2)c2ccccc2)cc1 [Compound 82, 2-[4-(2-Chloro-1,2-diphenylvinyl)phenoxy]-N,N-diethylethanamine citrate]
  Emax: 54.7%

## COc1cc(NCc2ccc3nc(N)nc(N)c3c2C)cc(OC)c1OC [Compound 2, 2,4-Diamino-5-methyl-6-[(3,4,5-trimethoxyanilino)methyl]quinazoline]
  Emax: 78.2%

## Cc1ccc(C(=O)Nc2cccc(C(F)(F)F)c2)cc1Nc1nc(-c2cccnc2)nc2c1cnn2C [Compound 62, 4-methyl-3-{[1-methyl-6-(3-pyridinyl)-1H-pyrazolo[3,4-d]pyrimidin-4-yl]amino}-N-[3-(trifluoromethyl)phenyl]benzamide]
  Emax: 88.4%

## COc1ccc2cc1Oc1ccc(cc1)C[C@H]1c3cc(c(OC)cc3CCN1C)Oc1c(OC)c(OC)cc3c1[C@H](C2)N(C)CC3 [Compound 79, (1beta)-(S,S)-6,6',7,12-Tetramethoxy-2,2'-dimethylberbaman]
  Emax: 99.6%
